Laboratory results reported in ChEMBL document CHEMBL5705899 (Biochem J, 2014).
Calls of active or inactive are those of the source.

What was measured:
[1] = target: MAP/microtubule affinity-regulating kinase 3 (Homo sapiens) (UniProt P27448); experiment: Inhibition of human MARK3 at 1 uM using RBER-CHKtide as substrate in presence of 33P-ATP by ProQinase assay
[2] = target: Dual specificity tyrosine-phosphorylation-regulated kinase 4 (Homo sapiens) (UniProt Q9NR20); experiment: Inhibition of human DYRK4 at 1 uM using RBER-CHKtide as substrate in presence of 33P-ATP by ProQinase assay
[3] = test system: PI3-kinase p110-alpha/p85-alpha (Homo sapiens), P27986+P42336 [E545K]; experiment: Inhibition of recombinant human N-terminal His6-tagged PI3Kalpha E545K mutant (2 to 1068 residues)/p85A (1 to 724 residues) expressed in baculovirus expression system at 1 uM using diC8 PIP2 as substrate incubated for 80 mins by ADP-Glo assay
[4] = target: Serine/threonine-protein kinase Sgk1 (Homo sapiens) (UniProt O00141); experiment: Inhibition of human SGK1 at 1 uM using RBER-GSK3 as substrate in presence of 33P-ATP by ProQinase assay
[5] = target: Mitogen-activated protein kinase 10 (Homo sapiens) (UniProt P53779); experiment: Inhibition of human JNK3 at 1 uM using ATF2 as substrate in presence of 33P-ATP by ProQinase assay
[6] = target: Serine/threonine-protein kinase Chk1 (Homo sapiens) (UniProt O14757); experiment: Inhibition of human CHK1 at 1 uM using RBER-CHKtide as substrate in presence of 33P-ATP by ProQinase assay
Sequence of Serine/threonine-protein kinase Chk1 (Homo sapiens) (O14757 whole entry): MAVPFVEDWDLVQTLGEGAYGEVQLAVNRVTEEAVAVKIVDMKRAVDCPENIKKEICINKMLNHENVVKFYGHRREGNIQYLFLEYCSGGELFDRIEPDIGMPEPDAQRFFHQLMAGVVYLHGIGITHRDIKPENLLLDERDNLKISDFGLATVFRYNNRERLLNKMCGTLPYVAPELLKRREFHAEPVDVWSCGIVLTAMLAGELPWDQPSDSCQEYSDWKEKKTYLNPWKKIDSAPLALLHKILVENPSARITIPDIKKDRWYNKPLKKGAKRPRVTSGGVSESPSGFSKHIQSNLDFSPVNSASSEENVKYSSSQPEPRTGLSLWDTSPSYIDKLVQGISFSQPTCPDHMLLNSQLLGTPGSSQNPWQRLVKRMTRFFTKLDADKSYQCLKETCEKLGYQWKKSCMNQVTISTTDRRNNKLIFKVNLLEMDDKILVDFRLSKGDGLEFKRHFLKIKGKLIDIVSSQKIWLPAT

[7] = target: Eukaryotic elongation factor 2 kinase (Homo sapiens) (UniProt O00418); experiment: Inhibition of human EEF2K at 1 uM using RBER-GSK3 as substrate in presence of 33P-ATP by ProQinase assay
[8] = target: Dual specificity mitogen-activated protein kinase kinase 2 (Homo sapiens) (UniProt P36507); experiment: Inhibition of human MEK2 at 1 uM using RBER-IRStide as substrate in presence of 33P-ATP by ProQinase assay
[9] = target: Platelet-derived growth factor receptor beta (Homo sapiens) (UniProt P09619); experiment: Inhibition of human PDGFRbeta at 1 uM using poly(Ala,Glu,Lys,Tyr) as substrate in presence of 33P-ATP by ProQinase assay
[10] = target: G protein-coupled receptor kinase 5 (Homo sapiens) (UniProt P34947); experiment: Inhibition of human GRK5 at 1 uM using casein as substrate in presence of 33P-ATP by ProQinase assay
Sequence of G protein-coupled receptor kinase 5 (Homo sapiens) (P34947 whole entry, looked up, the tested form may be a part): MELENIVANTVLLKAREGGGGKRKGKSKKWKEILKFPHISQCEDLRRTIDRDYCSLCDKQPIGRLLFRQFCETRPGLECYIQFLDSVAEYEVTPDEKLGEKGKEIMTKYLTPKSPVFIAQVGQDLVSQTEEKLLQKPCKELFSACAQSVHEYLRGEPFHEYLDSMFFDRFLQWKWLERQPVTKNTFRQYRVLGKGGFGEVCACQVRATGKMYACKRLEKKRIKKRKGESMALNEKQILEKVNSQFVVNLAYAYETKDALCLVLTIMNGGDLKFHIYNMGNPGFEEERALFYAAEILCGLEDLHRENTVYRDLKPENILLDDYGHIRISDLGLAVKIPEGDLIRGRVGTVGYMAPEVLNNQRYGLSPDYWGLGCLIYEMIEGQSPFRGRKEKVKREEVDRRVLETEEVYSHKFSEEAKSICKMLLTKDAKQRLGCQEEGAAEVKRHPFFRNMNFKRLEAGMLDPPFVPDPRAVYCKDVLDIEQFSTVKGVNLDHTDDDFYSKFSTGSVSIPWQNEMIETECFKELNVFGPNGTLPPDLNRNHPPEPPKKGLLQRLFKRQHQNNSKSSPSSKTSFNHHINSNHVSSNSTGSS

[11] = target: Vascular endothelial growth factor receptor 1 (Homo sapiens) (UniProt P17948); experiment: Inhibition of recombinant human N-terminal GST-tagged VEGFR1 (784 to 1338 residues) expressed in baculovirus infected Sf21 cells assessed as remaining activity at 1 uM using KKKSPGEYVNIEFG as substrate incubated for 30 mins in presence of [gamma-33P]ATP by filter binding method relative to control
[12] = target: Tyrosine-protein kinase JAK3 (Homo sapiens) (UniProt P52333); experiment: Inhibition of human JAK3 at 1 uM using poly(Ala,Glu,Lys,Tyr) as substrate in presence of 33P-ATP by ProQinase assay
Sequence of Tyrosine-protein kinase JAK3 (Homo sapiens) (P52333 whole entry, the tested form may be a part): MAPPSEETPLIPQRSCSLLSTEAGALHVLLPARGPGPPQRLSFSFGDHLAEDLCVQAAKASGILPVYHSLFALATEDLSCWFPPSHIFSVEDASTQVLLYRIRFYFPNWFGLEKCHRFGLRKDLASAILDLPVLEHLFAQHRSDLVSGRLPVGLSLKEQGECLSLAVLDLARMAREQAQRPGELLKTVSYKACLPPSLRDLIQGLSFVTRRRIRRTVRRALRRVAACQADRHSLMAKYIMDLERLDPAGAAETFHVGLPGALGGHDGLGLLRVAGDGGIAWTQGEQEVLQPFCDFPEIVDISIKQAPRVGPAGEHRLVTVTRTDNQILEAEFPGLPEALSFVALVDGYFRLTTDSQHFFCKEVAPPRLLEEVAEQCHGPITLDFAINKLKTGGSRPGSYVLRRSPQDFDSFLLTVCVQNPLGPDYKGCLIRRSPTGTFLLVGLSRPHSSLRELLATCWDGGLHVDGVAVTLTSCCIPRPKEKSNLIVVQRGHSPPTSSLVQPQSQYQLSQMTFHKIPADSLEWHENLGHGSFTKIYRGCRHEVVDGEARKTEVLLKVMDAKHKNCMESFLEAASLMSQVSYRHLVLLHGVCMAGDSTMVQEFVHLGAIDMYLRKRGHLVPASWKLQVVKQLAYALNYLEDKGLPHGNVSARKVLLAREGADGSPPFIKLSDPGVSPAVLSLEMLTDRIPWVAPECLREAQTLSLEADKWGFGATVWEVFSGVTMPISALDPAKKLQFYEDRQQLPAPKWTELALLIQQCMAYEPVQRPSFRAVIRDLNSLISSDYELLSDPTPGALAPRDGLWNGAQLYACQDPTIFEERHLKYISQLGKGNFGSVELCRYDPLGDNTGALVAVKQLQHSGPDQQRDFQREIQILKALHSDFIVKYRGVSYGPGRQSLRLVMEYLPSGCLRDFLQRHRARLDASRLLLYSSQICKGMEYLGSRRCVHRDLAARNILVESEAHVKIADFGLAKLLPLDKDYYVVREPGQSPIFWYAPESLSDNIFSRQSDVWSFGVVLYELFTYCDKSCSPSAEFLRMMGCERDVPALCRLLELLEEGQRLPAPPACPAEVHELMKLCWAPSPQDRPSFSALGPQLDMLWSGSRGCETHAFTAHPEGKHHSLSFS

[13] = target: Mitogen-activated protein kinase kinase kinase 5 (Homo sapiens) (UniProt Q99683); experiment: Inhibition of recombinant human N-terminal GST-tagged ASK1 (670 to 950 residues) expressed in Escherichia coli assessed as remaining activity at 1 uM using MBP as substrate incubated for 30 mins in presence of [gamma-33P]ATP by filter binding method relative to control
[14] = target: Tyrosine-protein kinase JAK1 (Homo sapiens) (UniProt P23458); experiment: Inhibition of human JAK1 at 1 uM using RBER-IRStide as substrate in presence of 33P-ATP by ProQinase assay
[15] = target: Receptor-interacting serine/threonine-protein kinase 2 (Homo sapiens) (UniProt O43353); experiment: Inhibition of human RIPK2 at 1 uM using RBER-CHKtide as substrate in presence of 33P-ATP by ProQinase assay
Sequence of Receptor-interacting serine/threonine-protein kinase 2 (Homo sapiens) (O43353 whole entry): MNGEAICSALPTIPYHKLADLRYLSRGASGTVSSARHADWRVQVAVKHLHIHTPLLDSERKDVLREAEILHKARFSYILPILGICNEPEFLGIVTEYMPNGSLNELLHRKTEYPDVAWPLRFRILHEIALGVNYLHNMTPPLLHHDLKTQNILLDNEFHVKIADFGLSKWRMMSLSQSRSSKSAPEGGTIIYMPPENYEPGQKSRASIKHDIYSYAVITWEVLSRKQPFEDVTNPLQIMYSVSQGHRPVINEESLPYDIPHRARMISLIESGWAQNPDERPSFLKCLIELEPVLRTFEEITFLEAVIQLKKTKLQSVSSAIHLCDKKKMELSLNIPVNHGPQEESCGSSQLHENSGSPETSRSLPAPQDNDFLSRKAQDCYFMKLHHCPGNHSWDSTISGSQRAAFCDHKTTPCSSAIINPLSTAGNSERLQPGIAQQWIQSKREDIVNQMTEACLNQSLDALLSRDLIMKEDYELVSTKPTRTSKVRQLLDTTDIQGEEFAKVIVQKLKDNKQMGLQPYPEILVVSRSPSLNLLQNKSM

[16] = target: Cyclin-dependent kinase 5/CDK5 activator 1 (Homo sapiens) (UniProt Q00535+Q15078); experiment: Inhibition of human CDK5/p25NCK at 1 uM using RBER-CHKtide as substrate in presence of 33P-ATP by ProQinase assay; type: protein-complex assay
Sequence of Cyclin-dependent kinase 5/CDK5 activator 1 (Homo sapiens) (Q00535 whole entry, the tested form may be a part): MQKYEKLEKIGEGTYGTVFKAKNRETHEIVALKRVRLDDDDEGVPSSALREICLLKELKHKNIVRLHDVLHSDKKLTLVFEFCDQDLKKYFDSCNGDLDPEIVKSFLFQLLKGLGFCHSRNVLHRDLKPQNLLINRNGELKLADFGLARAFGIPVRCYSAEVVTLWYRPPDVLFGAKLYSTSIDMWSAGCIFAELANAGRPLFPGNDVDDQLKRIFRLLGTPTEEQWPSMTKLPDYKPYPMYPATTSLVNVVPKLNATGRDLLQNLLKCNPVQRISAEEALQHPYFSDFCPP
Sequence of Cyclin-dependent kinase 5/CDK5 activator 1 (Homo sapiens) (Q15078 99-307 partner limits assumed): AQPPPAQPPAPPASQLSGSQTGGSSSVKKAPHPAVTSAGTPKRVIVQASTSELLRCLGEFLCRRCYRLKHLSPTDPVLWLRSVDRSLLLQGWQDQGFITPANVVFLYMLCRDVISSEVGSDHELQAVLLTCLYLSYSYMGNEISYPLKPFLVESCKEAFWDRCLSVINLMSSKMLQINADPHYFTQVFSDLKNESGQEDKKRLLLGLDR

[17] = target: Protein kinase C zeta type (Homo sapiens) (UniProt Q05513); experiment: Inhibition of recombinant human N-terminal His6-tagged PKCzeta (2 to 592 residues) expressed in baculovirus infected Sf21 cells assessed as remaining activity at 1 uM using ERMRPRKRQGSVRRV as substrate incubated for 30 mins in presence of [gamma-33P]ATP by filter binding method relative to control
[18] = target: RAC-gamma serine/threonine-protein kinase (Homo sapiens) (UniProt Q9Y243); experiment: Inhibition of human AKT3 at 1 uM using RBER-GSK3 as substrate in presence of 33P-ATP by ProQinase assay
[19] = target: Mitogen-activated protein kinase 15 (Homo sapiens) (UniProt Q8TD08); experiment: Inhibition of recombinant human N-terminal His6-tagged ERK8 (2 to 544 residues) expressed in baculovirus infected Sf21 cells assessed as remaining activity at 1 uM using MBP as substrate incubated for 30 mins in presence of [gamma-33P]ATP by filter binding method relative to control
[20] = target: Tyrosine-protein kinase JAK2 (Homo sapiens) (UniProt O60674); experiment: Inhibition of human JAK2 at 1 uM using poly(Ala,Glu,Lys,Tyr) as substrate in presence of 33P-ATP by ProQinase assay
[21] = target: Serine/threonine-protein kinase N2 (Homo sapiens) (UniProt Q16513); experiment: Inhibition of recombinant N-terminal His6/FLAG-tagged human PRK2 (501 to 984 residues) expressed in baculovirus infected Sf21 cells assessed as remaining activity at 1 uM using S6 peptide as substrate incubated for 30 mins in presence of [gamma-33P]ATP by filter binding method relative to control
[22] = target: Protein kinase C beta type (Homo sapiens) (UniProt P05771); experiment: Inhibition of human PKCbeta1 at 1 uM using 3xChocktide-PKC as substrate in presence of 33P-ATP by ProQinase assay
Sequence of Protein kinase C beta type (Homo sapiens) (P05771 2-671 limits assumed): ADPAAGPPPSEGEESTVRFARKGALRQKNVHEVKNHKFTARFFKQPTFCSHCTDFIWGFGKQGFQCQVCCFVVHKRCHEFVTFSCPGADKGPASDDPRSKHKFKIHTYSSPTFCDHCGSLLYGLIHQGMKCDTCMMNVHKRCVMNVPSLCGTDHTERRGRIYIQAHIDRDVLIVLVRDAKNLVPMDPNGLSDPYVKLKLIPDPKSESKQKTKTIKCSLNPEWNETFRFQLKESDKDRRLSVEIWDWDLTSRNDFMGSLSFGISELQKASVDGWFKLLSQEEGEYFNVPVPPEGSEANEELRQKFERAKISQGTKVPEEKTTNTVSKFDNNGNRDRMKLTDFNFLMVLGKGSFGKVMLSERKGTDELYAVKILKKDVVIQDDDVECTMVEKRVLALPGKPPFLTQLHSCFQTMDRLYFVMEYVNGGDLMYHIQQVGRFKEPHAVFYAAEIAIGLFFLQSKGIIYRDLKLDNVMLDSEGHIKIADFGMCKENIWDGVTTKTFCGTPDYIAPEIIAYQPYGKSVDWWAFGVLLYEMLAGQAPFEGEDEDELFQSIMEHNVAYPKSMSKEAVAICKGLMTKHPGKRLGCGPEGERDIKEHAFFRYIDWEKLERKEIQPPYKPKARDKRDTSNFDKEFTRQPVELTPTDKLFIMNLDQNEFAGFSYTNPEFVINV

[23] = target: Death-associated protein kinase 1 (Homo sapiens) (UniProt P53355); experiment: Inhibition of human DAPK1 at 1 uM using RBER-GSK3 as substrate in presence of 33P-ATP by ProQinase assay
[24] = target: Casein kinase I isoform alpha (Homo sapiens) (UniProt P48729); experiment: Inhibition of human CK1alpha1 at 1 uM using casein as substrate in presence of 33P-ATP by ProQinase assay
Sequence of Casein kinase I isoform alpha (Homo sapiens) (P48729 2-337 limits assumed): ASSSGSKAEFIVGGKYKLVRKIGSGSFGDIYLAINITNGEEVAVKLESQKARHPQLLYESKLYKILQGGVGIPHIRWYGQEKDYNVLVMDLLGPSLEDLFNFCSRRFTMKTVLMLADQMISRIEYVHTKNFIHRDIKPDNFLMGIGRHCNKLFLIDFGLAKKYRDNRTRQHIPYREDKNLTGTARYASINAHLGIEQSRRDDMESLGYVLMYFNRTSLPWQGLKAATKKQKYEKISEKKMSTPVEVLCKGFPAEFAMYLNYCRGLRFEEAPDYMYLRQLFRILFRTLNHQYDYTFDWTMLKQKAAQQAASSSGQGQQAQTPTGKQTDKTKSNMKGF

[25] = target: Calcium/calmodulin-dependent protein kinase type II subunit delta (Homo sapiens) (UniProt Q13557); experiment: Inhibition of human CAMK2D at 1 uM using RBER-CHKtide as substrate in presence of 33P-ATP by ProQinase assay

Sequence of MAP/microtubule affinity-regulating kinase 3 (Homo sapiens) (P27448 whole entry, looked up): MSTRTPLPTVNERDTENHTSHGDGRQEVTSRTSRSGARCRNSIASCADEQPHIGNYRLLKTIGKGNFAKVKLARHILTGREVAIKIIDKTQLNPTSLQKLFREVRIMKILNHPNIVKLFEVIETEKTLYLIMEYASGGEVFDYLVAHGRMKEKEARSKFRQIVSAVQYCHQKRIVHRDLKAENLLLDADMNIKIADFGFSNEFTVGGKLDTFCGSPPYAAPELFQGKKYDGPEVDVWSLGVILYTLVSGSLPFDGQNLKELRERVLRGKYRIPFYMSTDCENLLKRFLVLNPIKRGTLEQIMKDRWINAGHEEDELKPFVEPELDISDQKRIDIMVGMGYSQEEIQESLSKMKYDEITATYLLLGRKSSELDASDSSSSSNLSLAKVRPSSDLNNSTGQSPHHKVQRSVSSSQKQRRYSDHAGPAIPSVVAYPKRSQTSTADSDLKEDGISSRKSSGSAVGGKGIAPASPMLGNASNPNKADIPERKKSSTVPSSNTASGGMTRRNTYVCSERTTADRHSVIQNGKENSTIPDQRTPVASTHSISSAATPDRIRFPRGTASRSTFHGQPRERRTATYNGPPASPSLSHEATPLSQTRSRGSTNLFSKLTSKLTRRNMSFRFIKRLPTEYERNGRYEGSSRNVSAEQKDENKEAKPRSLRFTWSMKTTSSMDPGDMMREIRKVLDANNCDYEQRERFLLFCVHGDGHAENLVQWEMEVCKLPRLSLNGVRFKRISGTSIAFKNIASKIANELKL

CC(C)(O)CNc1ncc(-c2ccnc(Nc3ccnc(Cl)c3)n2)c(CC2CC2)n1
116%: Activity [21]
103%: Activity [17]
124%: Activity [13]
inactive: inhibition [1] | inhibition [2] | inhibition [3] | inhibition [4] | inhibition [5] | inhibition [6] | inhibition [7] | inhibition [8] | inhibition [9] | inhibition [10] | inhibition [12] | inhibition [14] | inhibition [15] | inhibition [16] | inhibition [18] | inhibition [20] | inhibition [22] | inhibition [23] | inhibition [24] | inhibition [25]
36%: Activity [19]
113%: Activity [11]
